Test results reported in patent publication US20230323395A1, “METHODS AND COMPOSITIONS FOR THE PRODUCTION OF ADENO-[…]” (Homology Medicines, Inc., priority 2021, published 2023).

Key:
Format in all cases: cell-based
[1] = test system: second HEK293 cell line (AAV producer cells); assay: AAV productivity with DMSO supplementation 30-120 minutes post-transfection, 3 L single-use bioreactors (Example 6); conditions: DMSO 120 minutes vs 30 minutes post-transfection, pH 7.0, 39° C.
Method: (§1) Cell transfection was performed generally as described in Grieger et al. (2016) Molecular Therapy 24(2): 287-297. Briefly, transfection mixes were prepared by mixing calculated volumes of vector(s), transfection media, and polyethylenimine (PEI), all at ambient temperature, and allowed to equilibrate before the transfection mixes were added to the cells. Post-transfection bioreactor setpoint shifts were performed 2 hours post-transfection, and cells were harvested 72 hours post-transfection. Harvested cells were lysed as described in Grieger et al. (2016) Molecular Therapy 24(2): 287-297. Crude lysate samples were collected following centrifugation to remove cellular debris. Productivity was measured by vector genome titer and capsid yield. Vector genome (VG) titer was determined by droplet digital PCR (ddPCR) by standard methods using primer/probe sets specific to the transgene payload of the vector comprising the transgene. Capsid yield was determined using enzyme-linked immunosorbent assays (ELISAs) by standard methods with an immobilized antibody directed against an epitope of the capsid as encoded by the vector comprising the capsid sequences. Percentage of intact vector genomes (% Full capsids) was calculated by dividing the vector genome productivity determined by ddPCR by the number of capsids determined by ELISA.
Based on the findings above, the effects of post-transfection pH, and the effect of supplementing the culture media with DMSO at 30-120 minutes post-transfection were further tested using a different representative AAV particle. Experiments were performed with a second HEK293 cell line according to the methods described in Examples 1 and 5 using 3 L single-use bioreactors.
AAV productivity, in terms of vector genome (VG) titer (FIG. 8A), capsid yield (FIG. 8B), and percent intact vector genomes (% Full; FIG. 8C), was measured as described in Example 1.

[2] = test system: HEK293 cells (AAV producer cells); assay: AAV productivity with culture media additives supplemented two hours post-transfection, shake flasks (Example 3)
Method: (§2) For each parameter tested, HEK293 cells were expanded by shake flask culture with a target seed density of >0.25E6 viable cells/mL and a target final density of <6E6 viable cells/mL. Expanded cells were inoculated into an Applikon 3 L Glass Bioreactor containing the appropriate amount of cell culture medium prior to transfection at a 2 L working volume.
as §1, with “Post-transfection bioreactor setpoint shifts were performed 2 hours post-transfection, and cells were harvested 72 hours post-transfection. Harvested cells were lysed as described in Grieger et al. (2016) Molecular Therapy 24(2): 287-297. Crude lysate samples were collected following centrifugation to remove cellular debris.” left out, “ELISA. […]” for “ELISA.”

[3] = test system: HEK293 cells (AAV producer cells); assay: DMSO time course analysis of AAV productivity (Example 4); conditions: 1.5% (v/v) DMSO added two hours pre-transfection and up to 30 minutes post-transfection; compared to the other time points tested
Method: as §2
as §1, with “Post-transfection bioreactor setpoint shifts were performed 2 hours post-transfection, and cells were harvested 72 hours post-transfection. Harvested cells were lysed as described in Grieger et al. (2016) Molecular Therapy 24(2): 287-297. Crude lysate samples were collected following centrifugation to remove cellular debris.” left out, “ELISA. […]” for “ELISA.”

[4] = test system: second HEK293 cell line (AAV producer cells); assay: AAV productivity at different DMSO concentrations, shake flasks (Example 7)
Method: as §1
The conditions of DMSO supplementation were further tested using different representative AAV particles. Experiments were performed with a second HEK293 cell line according to the methods described in Example 1 using shake flasks.
AAV productivity, in terms of vector genome (VG) titer (FIGS. 9A and 10A), capsid yield (FIGS. 9B and 10B), and percent intact vector genomes (% Full; FIGS. 9C and 10C), was measured as described in Example 1.

[5] = FIG. 9, 0.5% to 2.25% DMSO two hours post-transfection, up to a DMSO concentration of 1.5%
[6] = FIG. 10, 0.75% DMSO two hours post-transfection compared with 0% DMSO
[7] = FIG. 10, 1.5% DMSO two hours post-transfection compared with 0.75% DMSO

C[S+](C)[O-] [DMSO, dimethyl sulfoxide]
VG titers [1]: similar | capsid yields [1]: similar | intact vector genomes [1]: similar | VG titer ([2]; additive supplemented two hours post-transfection, ddPCR on crude lysate, over control conditions with no additive): general increase | percent full capsids ([2]; supplemented two hours post-transfection, as compared to the other additives): higher percent full capsids | percent yield of full capsids [3]: higher percent yield of full capsids | percent full capsids ([4]; FIG. 9, 0.5% to 2.25% DMSO two hours post-transfection): increased | VG titer [4, 5]: increased | capsid titer [4, 5]: increased or comparable | percent full capsids ([4]; FIG. 9, 0.5%, 0.75%, 1.5% and 2.25% DMSO compared with each other): comparable | VG titer [4, 6]: increased | capsid titer [4, 6]: increased | percent full capsids [4, 6]: comparable | VG titer [4, 7]: comparable | capsid titer [4, 7]: decreased | percent full capsids [4, 7]: increased
